± gives the standard deviation of the averaged measurements.
Tests used:
MK0752 = compound: O=C(O)CC[C@H]1CC[C@@](c2cc(F)ccc2F)(S(=O)(=O)c2ccc(Cl)cc2)CC1 [MK0752]; experiment: surviving fraction relative to DMSO-only wells; higher = less growth inhibition; conditions: exposure time: 5 days
How it was run: (§1)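 Log-phase tumour cell lines, 250–500 cells per well in 384-well plates, received inhibitors at 0.5, 1, 5, 10, 50, 100, 500 and 1000 nM continuously for five days, starting 24 hours after seeding. Viability was quantified with CellTiter-Glo luminescence and normalised to the median of DMSO-only wells to give surviving fraction. Three screens were run per line, and a line stayed in only with replicate Pearson r >0.7 and median Z' >0.3.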

[1] = compound: O=C(NOCC1CC1)c1ccc(F)c(F)c1Nc1ccc(I)cc1Cl; experiment: as above; conditions: exposure time: 5 days
How it was run: as §1

Test System NY BONE has a surviving fraction (MK0752; 0.5 nM) of 1.04 ± 0.025, a surviving fraction (MK0752; 1 nM) of 1.07 ± 0.03 and a surviving fraction (MK0752; 5 nM) of 1.11 ± 0.017. It also gave a surviving fraction (MK0752; 10 nM) of 1.11 ± 0.052, a surviving fraction (MK0752; 50 nM) of 1.07 ± 0.036 and a surviving fraction (MK0752; 100 nM) of 1.1 ± 0.02. The surviving fraction (MK0752; 500 nM) was 1.02 ± 0.042, the surviving fraction (MK0752; 1000 nM) was 1.06 ± 0.034 and the surviving fraction ([1]; 0.5 nM) was 0.923 ± 0.029. For the same test system, the surviving fraction ([1]; 1 nM) was 0.9257 ± 0.0055, the surviving fraction ([1]; 5 nM) was 0.953 ± 0.02 and the surviving fraction ([1]; 10 nM) was 0.975 ± 0.023. It also gave a surviving fraction ([1]; 50 nM) of 0.97 ± 0.026, a surviving fraction ([1]; 100 nM) of 0.993 ± 0.028 and a surviving fraction ([1]; 500 nM) of 0.93 ± 0.024. The surviving fraction ([1]; 1000 nM) was 0.921 ± 0.037.

With OS25HAL BONE the surviving fraction (MK0752; 0.5 nM) was 1 ± 0.016, the surviving fraction (MK0752; 1 nM) was 1.04 ± 0.029 and the surviving fraction (MK0752; 5 nM) was 1.022 ± 0.0072. The surviving fraction (MK0752; 10 nM) was 0.99 ± 0.04, the surviving fraction (MK0752; 50 nM) was 1.09 ± 0.0091 and the surviving fraction (MK0752; 100 nM) was 1.1 ± 0.048. It also gave a surviving fraction (MK0752; 500 nM) of 1.02 ± 0.057, a surviving fraction (MK0752; 1000 nM) of 1.07 ± 0.02 and a surviving fraction ([1]; 0.5 nM) of 0.951 ± 0.024. The surviving fraction ([1]; 1 nM) was 0.964 ± 0.02, the surviving fraction ([1]; 5 nM) was 0.931 ± 0.033 and the surviving fraction ([1]; 10 nM) was 0.971 ± 0.025. The surviving fraction ([1]; 50 nM) was 0.955 ± 0.015, the surviving fraction ([1]; 100 nM) was 0.989 ± 0.012 and the surviving fraction ([1]; 500 nM) was 0.943 ± 0.012. It also gave a surviving fraction ([1]; 1000 nM) of 0.954 ± 0.024.

With OSHN BONE the surviving fraction (MK0752; 0.5 nM) was 1.12 ± 0.034, the surviving fraction (MK0752; 1 nM) was 1.14 ± 0.035 and the surviving fraction (MK0752; 5 nM) was 1.11 ± 0.018. For the same test system, the surviving fraction (MK0752; 10 nM) was 1.11 ± 0.018, the surviving fraction (MK0752; 50 nM) was 1.11 ± 0.034 and the surviving fraction (MK0752; 100 nM) was 1.13 ± 0.018. It also gave a surviving fraction (MK0752; 500 nM) of 1.12 ± 0.02, a surviving fraction (MK0752; 1000 nM) of 1.09 ± 0.017 and a surviving fraction ([1]; 0.5 nM) of 0.969 ± 0.026. It also gave a surviving fraction ([1]; 1 nM) of 0.983 ± 0.029, a surviving fraction ([1]; 5 nM) of 0.979 ± 0.019 and a surviving fraction ([1]; 10 nM) of 0.988 ± 0.028. The surviving fraction ([1]; 50 nM) was 0.969 ± 0.03, the surviving fraction ([1]; 100 nM) was 0.989 ± 0.016 and the surviving fraction ([1]; 500 nM) was 0.973 ± 0.018. The surviving fraction ([1]; 1000 nM) was 1 ± 0.027.

PCI30 HEADNECK was tested, and the surviving fraction (MK0752; 0.5 nM) was 1.02 ± 0.12, the surviving fraction (MK0752; 1 nM) was 1.04 ± 0.12 and the surviving fraction (MK0752; 5 nM) was 1.09 ± 0.057. For the same test system, the surviving fraction (MK0752; 10 nM) was 1.1 ± 0.05, the surviving fraction (MK0752; 50 nM) was 1.06 ± 0.076 and the surviving fraction (MK0752; 100 nM) was 1.08 ± 0.092. It also gave a surviving fraction (MK0752; 500 nM) of 1.03 ± 0.047, a surviving fraction (MK0752; 1000 nM) of 1.04 ± 0.018 and a surviving fraction ([1]; 0.5 nM) of 0.831 ± 0.027. The surviving fraction ([1]; 1 nM) was 0.849 ± 0.074, the surviving fraction ([1]; 5 nM) was 1.02 ± 0.078 and the surviving fraction ([1]; 10 nM) was 1.01 ± 0.029. For the same test system, the surviving fraction ([1]; 50 nM) was 0.903 ± 0.015, the surviving fraction ([1]; 100 nM) was 0.758 ± 0.026 and the surviving fraction ([1]; 500 nM) was 0.433 ± 0.036. It also gave a surviving fraction ([1]; 1000 nM) of 0.402 ± 0.023.

RDES SOFT TISSUE gave a surviving fraction (MK0752; 0.5 nM) of 1.27 ± 0.1, a surviving fraction (MK0752; 1 nM) of 1.241 ± 0.0096 and a surviving fraction (MK0752; 5 nM) of 1.17 ± 0.1. The surviving fraction (MK0752; 10 nM) was 1.21 ± 0.18, the surviving fraction (MK0752; 50 nM) was 1.03 ± 0.15 and the surviving fraction (MK0752; 100 nM) was 1.18 ± 0.29. It also gave a surviving fraction (MK0752; 500 nM) of 0.97 ± 0.097, a surviving fraction (MK0752; 1000 nM) of 0.998 ± 0.12 and a surviving fraction ([1]; 0.5 nM) of 1.33 ± 0.025. The surviving fraction ([1]; 1 nM) was 1.27 ± 0.071, the surviving fraction ([1]; 5 nM) was 1.32 ± 0.15 and the surviving fraction ([1]; 10 nM) was 1.33 ± 0.093. It also gave a surviving fraction ([1]; 50 nM) of 1.28 ± 0.1, a surviving fraction ([1]; 100 nM) of 1.29 ± 0.085 and a surviving fraction ([1]; 500 nM) of 1.37 ± 0.16. The surviving fraction ([1]; 1000 nM) was 1.24 ± 0.082.

For S68 BREAST, the surviving fraction (MK0752; 0.5 nM) was 0.684 ± 0.15, the surviving fraction (MK0752; 1 nM) was 0.975 ± 0.11 and the surviving fraction (MK0752; 5 nM) was 0.912 ± 0.11. It also gave a surviving fraction (MK0752; 10 nM) of 0.96 ± 0.28, a surviving fraction (MK0752; 50 nM) of 0.94 ± 0.094 and a surviving fraction (MK0752; 100 nM) of 0.989 ± 0.058. For the same test system, the surviving fraction (MK0752; 500 nM) was 0.919 ± 0.19, the surviving fraction (MK0752; 1000 nM) was 1.04 ± 0.27 and the surviving fraction ([1]; 0.5 nM) was 0.917 ± 0.13. For the same test system, the surviving fraction ([1]; 1 nM) was 0.918 ± 0.21, the surviving fraction ([1]; 5 nM) was 0.901 ± 0.063 and the surviving fraction ([1]; 10 nM) was 1.04 ± 0.27. For the same test system, the surviving fraction ([1]; 50 nM) was 0.801 ± 0.18, the surviving fraction ([1]; 100 nM) was 0.852 ± 0.13 and the surviving fraction ([1]; 500 nM) was 0.669 ± 0.1. It also gave a surviving fraction ([1]; 1000 nM) of 0.544 ± 0.096.

SAOS2 BONE gave a surviving fraction (MK0752; 0.5 nM) of 1.18 ± 0.028, a surviving fraction (MK0752; 1 nM) of 1.2037 ± 0.00058 and a surviving fraction (MK0752; 5 nM) of 1.19 ± 0.12. For the same test system, the surviving fraction (MK0752; 10 nM) was 1.22 ± 0.077, the surviving fraction (MK0752; 50 nM) was 1.237 ± 0.0098 and the surviving fraction (MK0752; 100 nM) was 1.19 ± 0.076. For the same test system, the surviving fraction (MK0752; 500 nM) was 1.12 ± 0.019, the surviving fraction (MK0752; 1000 nM) was 1.092 ± 0.0035 and the surviving fraction ([1]; 0.5 nM) was 1.08 ± 0.042. The surviving fraction ([1]; 1 nM) was 1.06 ± 0.032, the surviving fraction ([1]; 5 nM) was 1.04 ± 0.073 and the surviving fraction ([1]; 10 nM) was 1.02 ± 0.018. For the same test system, the surviving fraction ([1]; 50 nM) was 1.02 ± 0.039, the surviving fraction ([1]; 100 nM) was 0.986 ± 0.078 and the surviving fraction ([1]; 500 nM) was 0.885 ± 0.031. It also gave a surviving fraction ([1]; 1000 nM) of 0.908 ± 0.047.

SCC36 HEADNECK gave a surviving fraction (MK0752; 0.5 nM) of 1.06 ± 0.15, a surviving fraction (MK0752; 1 nM) of 1.13 ± 0.14 and a surviving fraction (MK0752; 5 nM) of 1.19 ± 0.064. For the same test system, the surviving fraction (MK0752; 10 nM) was 0.962 ± 0.057, the surviving fraction (MK0752; 50 nM) was 1.12 ± 0.035 and the surviving fraction (MK0752; 100 nM) was 1.03 ± 0.055. For the same test system, the surviving fraction (MK0752; 500 nM) was 1.03 ± 0.047, the surviving fraction (MK0752; 1000 nM) was 0.965 ± 0.073 and the surviving fraction ([1]; 0.5 nM) was 1.09 ± 0.037. For the same test system, the surviving fraction ([1]; 1 nM) was 1.15 ± 0.03, the surviving fraction ([1]; 5 nM) was 1.09 ± 0.035 and the surviving fraction ([1]; 10 nM) was 1.18 ± 0.12. It also gave a surviving fraction ([1]; 50 nM) of 1.03 ± 0.042, a surviving fraction ([1]; 100 nM) of 0.956 ± 0.057 and a surviving fraction ([1]; 500 nM) of 0.776 ± 0.082. It also gave a surviving fraction ([1]; 1000 nM) of 0.78 ± 0.087.

With SCC47 HEADNECK the surviving fraction (MK0752; 0.5 nM) was 1.13 ± 0.12, the surviving fraction (MK0752; 1 nM) was 1.17 ± 0.034 and the surviving fraction (MK0752; 5 nM) was 1.2 ± 0.089. For the same test system, the surviving fraction (MK0752; 10 nM) was 1.14 ± 0.029, the surviving fraction (MK0752; 50 nM) was 1.14 ± 0.064 and the surviving fraction (MK0752; 100 nM) was 1.18 ± 0.038. It also gave a surviving fraction (MK0752; 500 nM) of 1.03 ± 0.067, a surviving fraction (MK0752; 1000 nM) of 1.06 ± 0.058 and a surviving fraction ([1]; 0.5 nM) of 0.82 ± 0.063. The surviving fraction ([1]; 1 nM) was 0.844 ± 0.011, the surviving fraction ([1]; 5 nM) was 0.951 ± 0.013 and the surviving fraction ([1]; 10 nM) was 0.973 ± 0.087. For the same test system, the surviving fraction ([1]; 50 nM) was 0.928 ± 0.089, the surviving fraction ([1]; 100 nM) was 0.907 ± 0.044 and the surviving fraction ([1]; 500 nM) was 0.628 ± 0.058. For the same test system, the surviving fraction ([1]; 1000 nM) was 0.658 ± 0.024.

SCC90 HEADNECK showed a surviving fraction (MK0752; 0.5 nM) of 1.19 ± 0.014, a surviving fraction (MK0752; 1 nM) of 1.11 ± 0.15 and a surviving fraction (MK0752; 5 nM) of 1.24 ± 0.11. For the same test system, the surviving fraction (MK0752; 10 nM) was 1.25 ± 0.12, the surviving fraction (MK0752; 50 nM) was 1.11 ± 0.064 and the surviving fraction (MK0752; 100 nM) was 1.13 ± 0.11. For the same test system, the surviving fraction (MK0752; 500 nM) was 1.03 ± 0.093, the surviving fraction (MK0752; 1000 nM) was 1.11 ± 0.091 and the surviving fraction ([1]; 0.5 nM) was 0.786 ± 0.13. It also gave a surviving fraction ([1]; 1 nM) of 0.773 ± 0.081, a surviving fraction ([1]; 5 nM) of 0.991 ± 0.098 and a surviving fraction ([1]; 10 nM) of 0.847 ± 0.16. For the same test system, the surviving fraction ([1]; 50 nM) was 0.672 ± 0.045, the surviving fraction ([1]; 100 nM) was 0.495 ± 0.12 and the surviving fraction ([1]; 500 nM) was 0.235 ± 0.036. For the same test system, the surviving fraction ([1]; 1000 nM) was 0.193 ± 0.037.
